These results are taken from article PMC3986359, “New Cholinesterase Inhibitory Constituents from Lonicera quinquelocularis” (PLoS ONE, 2014).

Like-named read-outs stand apart in the source and are kept apart here.

Assay [1] concerns the target T1, butyrylcholinesterase (horse-serum E.C 3.1.1.8) (Equus caballus, UniProt P81908).
T1 construct: butyrylcholinesterase (horse-serum E.C 3.1.1.8); purchased Sigma, Pakistan; host or cells: horse serum
Description: biochemical. The following applies: for BChE inhibition profile (in words): qualitative statement. It is filed as biochemical. On the procedure: (§1) All other chemicals were of analytical grade and were used as such without further purification. Acetylcholinesterase (AChE) and butyrylcholinesterase (BChE) inhibiting activities were measured according to a modified spectrophotometric method used by Ellman et al.. Protocol and assay conditions were the same as described by Rocha et al..
(§2) The Acetylthiocholine iodide and butyrylthiocholine chloride were used as substrates for investigation of acetylcholinesterase and butyrylcholinesterase assays, respectively. The 5,5′-Dithiobis[2-nitrobenzoic-acid] (DTNB) was used for the measurement of cholinesterase activity. The 0.2 mM DTNB in 62 mM sodium phosphate buffer (pH 8.0, 880 µL), test compound solution (40 µL) and acetylcholinesterase or butyrylcholinesterase solution (40 µL) were mixed and incubated for 15 minutes (25°C). The reaction was then initiated by the addition of acetylthiocholine or butyrylthiocholine (40 µL), respectively. […] All the reactions were performed in triplicate using a BMS spectrophotometer (USA). […] The final concentration of DMSO in the reaction mixture was maintained at 6%.

In assay [2] the target is T2, Acetylcholinesterase (EC 3.1.1.7) (Homo sapiens, UniProt P22303).
T2 construct: purchased Sigma, Pakistan
Description: biochemical. It is filed as biochemical. The following applies: for IC50: read-out: AChE ± SEM (IC50); for AChE inhibition profile (in words): qualitative statement. Here is the method:
as §1, §2

Where [3] appears, read: butyrylthiocholine chloride substrate, DTNB, pH 8.0, 25°C, 412 nm, value ± SEM, read-out: BChE ± SEM (IC50).
Setting [4] is: acetylthiocholine iodide substrate, DTNB, pH 8.0, 25°C, 412 nm, value ± SEM.

T1 sequence (P81908 whole entry): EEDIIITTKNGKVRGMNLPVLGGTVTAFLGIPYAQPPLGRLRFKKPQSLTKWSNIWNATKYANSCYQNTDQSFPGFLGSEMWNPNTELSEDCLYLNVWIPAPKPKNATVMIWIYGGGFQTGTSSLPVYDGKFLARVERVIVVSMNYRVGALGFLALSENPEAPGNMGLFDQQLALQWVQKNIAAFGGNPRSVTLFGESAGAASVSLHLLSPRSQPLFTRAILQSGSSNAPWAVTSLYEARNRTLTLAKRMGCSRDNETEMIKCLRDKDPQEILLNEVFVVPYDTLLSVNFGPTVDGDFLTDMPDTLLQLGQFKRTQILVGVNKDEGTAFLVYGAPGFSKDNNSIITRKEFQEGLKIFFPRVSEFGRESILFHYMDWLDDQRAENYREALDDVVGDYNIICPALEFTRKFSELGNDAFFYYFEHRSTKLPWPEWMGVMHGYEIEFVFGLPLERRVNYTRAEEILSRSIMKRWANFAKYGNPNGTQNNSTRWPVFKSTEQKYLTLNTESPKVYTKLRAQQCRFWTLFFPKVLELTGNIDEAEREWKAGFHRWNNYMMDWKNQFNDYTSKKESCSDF
T2 sequence (P22303 32-614): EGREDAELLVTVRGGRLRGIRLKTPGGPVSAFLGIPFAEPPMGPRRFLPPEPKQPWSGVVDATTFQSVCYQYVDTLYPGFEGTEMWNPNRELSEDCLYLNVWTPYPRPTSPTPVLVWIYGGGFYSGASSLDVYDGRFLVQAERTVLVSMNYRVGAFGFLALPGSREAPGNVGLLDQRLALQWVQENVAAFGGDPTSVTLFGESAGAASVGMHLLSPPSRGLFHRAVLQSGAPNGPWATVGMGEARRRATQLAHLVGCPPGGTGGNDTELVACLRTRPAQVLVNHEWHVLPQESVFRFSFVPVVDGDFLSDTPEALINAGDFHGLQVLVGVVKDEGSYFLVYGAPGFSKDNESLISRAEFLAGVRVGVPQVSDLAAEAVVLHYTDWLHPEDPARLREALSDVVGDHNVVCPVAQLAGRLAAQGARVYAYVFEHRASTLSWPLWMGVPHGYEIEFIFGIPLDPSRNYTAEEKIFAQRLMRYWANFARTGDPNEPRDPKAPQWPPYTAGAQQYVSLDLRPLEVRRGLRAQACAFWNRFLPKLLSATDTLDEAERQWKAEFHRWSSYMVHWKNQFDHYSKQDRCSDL

As for `CCC(CCC(C)CCOC(C)=O)COC(=O)c1ccccc1C(=O)OCC(CC)CCC(C)CCOC(C)=O` (stereo not shown) [Compound 3, Bis (7-acetoxy-2-ethyl-5-methylheptyl) phthalate], the IC50 in assay [1] (setting [3]) was found to be 5.98 ± 0.079 µM; in assay [2] (setting [4]) it was 1.65 ± 0.03 µM.

Take `CCCCC(CC)COC(=O)c1ccccc1C(=O)OCC(CC)CCCC` (stereo not shown) [Compound 1, bis (2-ethylhexyl phthalate]: in assay [1] (butyrylthiocholine chloride substrate, DTNB, pH 8.0, 25°C, 412 nm, value ± SEM), the “BChE ± SEM (IC50)” value is given as “Nil”. Further, the “BChE inhibition profile (in words)” value in assay [1] is “inactive”. The “AChE ± SEM (IC50)” value in assay [2] (setting [4]) is “Nil”. Moreover, in assay [2], the “AChE inhibition profile (in words)” value was “inactive”.

As for `CC(C)=CCc1cc(C(=O)OCC(C)(C)C)cc(CC=C(C)C)c1O` [Compound 5, Neopentyl-4-hydroxy-3,5-bis [3-methyl-2-butenyl] benzoate], the IC50 in assay [1] (setting [3]) amounted to 9.84 ± 0.037 µM; in assay [2] (setting [4]), 3.43 ± 0.02 µM.

As to `CCOc1c(CC=C(C)C)cc(C(=O)OCC(C)(C)C)cc1CC=C(C)C` [Compound 4, Neopentyl-4-ethoxy-3,5-bis [3-methyl-2-butenyl] benzoate], the results for the IC50 in assay [1] (setting [3]) and in assay [2] (setting [4]) were 14.76 ± 0.087 µM and 5.27 ± 0.04 µM, respectively. For the same molecule, the “BChE inhibition profile (in words)” value in assay [1] was “weak inhibition profile”. In addition, in assay [2], the “AChE inhibition profile (in words)” value is given as “weak inhibition profile”.

Consider `CCCCCCCCOC(=O)c1ccccc1C(=O)OCCCCCCCC` [Compound 2, dioctyl phthalate], for which, in assay [1], the IC50 worked out at 20.12 ± 0.079 µM and the “BChE inhibition profile (in words)” value is “weak inhibition profile”. The IC50 in assay [2] (setting [4]) was 8.74 ± 0.07 µM. The “AChE inhibition profile (in words)” value in assay [2] is reported as “weak inhibition profile”.

As usually defined, the IC50 is the concentration needed to halve the response being measured.
